According to patent publication US6448405B1, “Steroid receptor modulator compounds and methods” (Ligand Pharmaceuticals Incorporated, priority 1994, dated 2002):

How the values were obtained:
Format in all cases: cell-based
[1] = target: T1, human mineralocorticoid receptor (MR) (Homo sapiens, UniProt P08235); experiment: Co-transfection assay, MR antagonist activity, CV-1 cells (pRShMR); conditions: antagonist mode; for MR Antagonist CV-1 Cells Efficacy (%): Table 4, % maximal inhibition; for IC50: aldosterone at its EC50, read-out: MR Antagonist CV-1 Cells Potency
T1 construct: expressed in transfected cells; host or cells: CV-1 cells, transient transfection
T1 sequence (P08235 1-984): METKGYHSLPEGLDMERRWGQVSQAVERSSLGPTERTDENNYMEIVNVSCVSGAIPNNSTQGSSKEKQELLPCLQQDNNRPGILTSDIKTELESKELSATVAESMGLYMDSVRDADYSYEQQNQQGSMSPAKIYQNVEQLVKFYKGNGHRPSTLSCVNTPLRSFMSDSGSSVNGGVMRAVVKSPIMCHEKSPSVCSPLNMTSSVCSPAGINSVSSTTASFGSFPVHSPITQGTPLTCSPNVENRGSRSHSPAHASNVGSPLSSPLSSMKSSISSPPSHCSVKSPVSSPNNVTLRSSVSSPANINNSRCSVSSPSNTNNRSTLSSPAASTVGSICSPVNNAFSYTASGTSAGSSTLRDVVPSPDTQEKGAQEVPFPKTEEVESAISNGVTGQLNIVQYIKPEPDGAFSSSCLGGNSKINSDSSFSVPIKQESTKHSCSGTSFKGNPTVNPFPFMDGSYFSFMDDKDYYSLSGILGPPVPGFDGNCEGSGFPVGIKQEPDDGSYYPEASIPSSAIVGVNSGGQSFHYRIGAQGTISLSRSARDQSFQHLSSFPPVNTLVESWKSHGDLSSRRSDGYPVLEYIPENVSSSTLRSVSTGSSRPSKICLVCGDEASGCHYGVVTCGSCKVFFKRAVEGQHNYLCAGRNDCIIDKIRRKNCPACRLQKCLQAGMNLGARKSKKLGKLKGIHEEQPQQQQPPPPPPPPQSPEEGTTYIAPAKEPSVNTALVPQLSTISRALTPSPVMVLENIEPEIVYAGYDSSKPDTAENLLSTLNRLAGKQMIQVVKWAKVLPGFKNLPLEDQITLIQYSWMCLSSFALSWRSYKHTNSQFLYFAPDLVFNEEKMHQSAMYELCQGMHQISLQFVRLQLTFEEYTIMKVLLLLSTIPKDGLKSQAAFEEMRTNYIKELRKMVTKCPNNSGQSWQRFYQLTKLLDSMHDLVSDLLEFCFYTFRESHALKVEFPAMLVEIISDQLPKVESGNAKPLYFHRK

[2] = target: T2, human glucocorticoid receptor (GR) (Homo sapiens, UniProt P04150); experiment: Co-transfection assay, GR antagonist activity, CV-1 cells (pRShGR); conditions: antagonist mode; for GR Antagonist CV-1 Cells Efficacy (%): Table 4, % maximal inhibition; for IC50: dexamethasone at its EC50, read-out: GR Antagonist CV-1 Cells Potency
T2 construct: expressed in transfected cells; host or cells: CV-1 cells, transient transfection
T2 sequence (P04150 1-777): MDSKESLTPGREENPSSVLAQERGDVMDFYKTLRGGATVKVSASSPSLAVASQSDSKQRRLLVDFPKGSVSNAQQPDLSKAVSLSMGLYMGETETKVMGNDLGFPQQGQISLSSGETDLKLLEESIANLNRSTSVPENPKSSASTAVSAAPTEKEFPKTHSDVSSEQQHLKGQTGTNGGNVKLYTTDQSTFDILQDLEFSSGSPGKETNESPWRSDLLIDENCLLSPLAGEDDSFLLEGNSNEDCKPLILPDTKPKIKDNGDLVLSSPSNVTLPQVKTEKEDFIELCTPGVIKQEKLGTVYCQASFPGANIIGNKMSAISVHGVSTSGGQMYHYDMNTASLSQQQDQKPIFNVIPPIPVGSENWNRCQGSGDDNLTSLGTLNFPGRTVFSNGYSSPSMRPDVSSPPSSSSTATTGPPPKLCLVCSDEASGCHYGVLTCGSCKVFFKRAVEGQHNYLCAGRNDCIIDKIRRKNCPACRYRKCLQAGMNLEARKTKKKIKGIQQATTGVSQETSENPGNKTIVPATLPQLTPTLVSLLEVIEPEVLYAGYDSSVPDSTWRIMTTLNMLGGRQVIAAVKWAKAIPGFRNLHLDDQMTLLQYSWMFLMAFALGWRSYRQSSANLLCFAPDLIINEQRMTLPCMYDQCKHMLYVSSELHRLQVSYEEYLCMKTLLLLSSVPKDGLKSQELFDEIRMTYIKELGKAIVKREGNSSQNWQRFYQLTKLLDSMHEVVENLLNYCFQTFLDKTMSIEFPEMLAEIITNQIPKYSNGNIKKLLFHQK

human PR-B = target: T3, human PR-B (Homo sapiens, UniProt P06401); experiment: Co-transfection assay, PR agonist and antagonist activity, CV-1 cells; conditions: for EC50: read-out: PR Agonist CV-1 Cells Potency; for PR Antagonist CV-1 Cells Efficacy (%): antagonist mode, progesterone at its EC50, % maximal inhibition; for IC50: read-out: PR Antagonist CV-1 Cells Potency;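 on all read-outs here: luciferase reporter driven by a hormone response element, co-transfected with human PR-B into CV-1 monkey kidney cells, agonists raise and antagonists lower the reporter signal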
T3 construct: expressed in transfected cells; host or cells: CV-1 cells (African green monkey kidney fibroblasts), transient transfection
T3 sequence (P06401 1-933): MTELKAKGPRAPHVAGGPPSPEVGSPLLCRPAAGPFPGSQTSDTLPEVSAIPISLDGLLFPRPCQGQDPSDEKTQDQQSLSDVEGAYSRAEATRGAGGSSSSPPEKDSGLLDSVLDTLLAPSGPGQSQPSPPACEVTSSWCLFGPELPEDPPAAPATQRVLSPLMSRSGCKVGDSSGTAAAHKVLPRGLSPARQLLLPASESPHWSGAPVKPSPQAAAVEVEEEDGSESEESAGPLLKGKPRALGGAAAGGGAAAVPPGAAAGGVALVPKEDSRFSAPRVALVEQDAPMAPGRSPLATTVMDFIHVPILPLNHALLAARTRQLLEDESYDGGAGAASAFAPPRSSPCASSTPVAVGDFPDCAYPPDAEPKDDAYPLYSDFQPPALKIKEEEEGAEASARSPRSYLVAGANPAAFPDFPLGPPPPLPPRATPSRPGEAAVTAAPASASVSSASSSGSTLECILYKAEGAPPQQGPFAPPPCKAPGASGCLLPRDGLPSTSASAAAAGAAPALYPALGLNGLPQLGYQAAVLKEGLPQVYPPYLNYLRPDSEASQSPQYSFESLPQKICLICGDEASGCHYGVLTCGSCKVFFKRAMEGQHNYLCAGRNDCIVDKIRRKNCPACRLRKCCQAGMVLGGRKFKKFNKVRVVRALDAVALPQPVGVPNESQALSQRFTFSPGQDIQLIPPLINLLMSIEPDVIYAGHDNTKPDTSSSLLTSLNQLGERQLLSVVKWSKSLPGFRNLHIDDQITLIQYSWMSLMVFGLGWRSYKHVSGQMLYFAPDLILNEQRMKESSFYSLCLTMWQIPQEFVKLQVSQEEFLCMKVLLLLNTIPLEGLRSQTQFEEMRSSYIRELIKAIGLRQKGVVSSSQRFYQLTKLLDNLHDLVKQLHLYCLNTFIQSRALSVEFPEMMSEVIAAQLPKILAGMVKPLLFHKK

SMILES | MR Antagonist CV-1 Cells Efficacy (%) [1] [%] | IC50 [1] [nM] | GR Antagonist CV-1 Cells Efficacy (%) [2] [%] | IC50 [2] [nM] | EC50 (human PR-B; agonist mode) [nM] | PR Agonist CV-1 Cells Efficacy (%) (human PR-B; agonist mode, percent maximal response relative to reference agonist progesterone) | PR Antagonist CV-1 Cells Efficacy (%) (human PR-B) | IC50 (human PR-B) [nM]
CC1=CC(C)(C)Nc2ccc3c(c21)C(c1ccccc1)Oc1ccccc1-3 (racemic) [Compound 161, (R/S)-1,2-Dihydro-2,2,4-trimethyl-5-phenyl-5H-chromeno[3,4-f]quinoline] | 58 | 1000 | 97 | 600 | 203 | 47 | 75% | 209
CC1=CC(C)(C)Nc2ccc3c(c21)C(c1cccc(C(F)(F)F)c1)Oc1ccccc1-3 (racemic) [Compound 195, (R/S) 1,2-Dihydro-2,2,4-trimethyl-5-[3-(trifluoromethyl)phenyl]-5H-chromeno[3,4-f]quinoline] | 47 | 1900 | 96 | 590 | 13 | – | na (na = not active (i.e. efficacy or <20 and potency of >10,000)) | > 10000
